One assay relates to HCT116. The assay can be described thus: cells. The format is cell-based, human. The settings on record: for IC50: read-out: IC50 HCT116. As to the method: (§1) A population of cells (>1×10^6 cells/mL as determined with a hemocytometer) was diluted with Dulbecco's Modified Eagle Medium (DMEM, Gibco) containing 10% fetal bovine serum (FBS, Gibco) to give a final concentration of 30,000 cells/mL. To each well of a 96-well plate (Corning® Costar®) was added 100 μL of the cell media solution with a multichannel pipet.
(§2) The test compounds were then added to the plate as follows: test compounds were diluted in DMSO to a concentration of 1 mM. 10-Fold serial dilutions in DMSO were next performed on a separate 96-well plate. Fresh culture media (100 μL) was added to each well of cells resulting in 200 μL of medium per well followed by 2 μL of each test agent. Compounds were tested in duplicate (n=2-8 times) at six concentrations between 0-1000 nM or 0-10000 nM. Following the addition of compound, cultures were incubated for an additional 72 hours.
(§3) The plates were incubated at 37° C. for 5 minutes (L1210) or 15 min (HCT116 and HCT116/VM46).

In the next assay the test system is L1210. Description: cells. The format is cell-based, mouse. The protocol: as §1, §2, §3
The mark [1] stands for this setting: vinblastine-sensitive cell lines.

The structures appear in SMILES notation. Read-outs that look alike come from different tables or passages of the source.

In general, IC50 refers to the concentration needed to halve the response being measured. Turning to `CCC1(NC(=O)c2cccc3ccccc23)CC2CN(CCc3c([nH]c4ccccc34)C(C(=O)OC)(c3cc4c(cc3OC)N(C)C3C(O)(C(=O)OC)C(OC(C)=O)C5(CC)C=CCN6CCC43C65)C2)C1` (stereo not drawn) [Compound 115], the IC50 is 65 nM in the assay on HCT116 (Table 4) and 60 nM in the assay on L1210 (Table 4). For the same compound, the “potency relative to vinblastine (less potent / reduced activity)” value in the assay with HCT116 (setting [1]) is “roughly 10 fold”.

Take `CCC1(NC(=O)c2ccc(C)c(NC(C)=O)c2)CC2CN(CCc3c([nH]c4ccccc34)C(C(=O)OC)(c3cc4c(cc3OC)N(C)C3C(O)(C(=O)OC)C(OC(C)=O)C5(CC)C=CCN6CCC43C65)C2)C1` (stereo not drawn) [Compound 103]: the values for the half-maximal inhibitory concentration (IC50) in the assay on HCT116 (Table 2) and in the assay on L1210 (Table 2) were 4.3 nM and 5.4 nM, respectively.

`CCOc1ccc(C(=O)NC2(CC)CC3CN(CCc4c([nH]c5ccccc45)C(C(=O)OC)(c4cc5c(cc4OC)N(C)C4C(O)(C(=O)OC)C(OC(C)=O)C6(CC)C=CCN7CCC54C76)C3)C2)cc1OCC` (stereo not drawn) [Compound 73]: the IC50 is 0.5 nM in the assay on HCT116 (Table 2) and 0.4 nM with L1210 (Table 2).

Consider `CCC1(NC(=O)c2ccc3c(c2)CCC3)CC2CN(CCc3c([nH]c4ccccc34)C(C(=O)OC)(c3cc4c(cc3OC)N(C)C3C(O)(C(=O)OC)C(OC(C)=O)C5(CC)C=CCN6CCC43C65)C2)C1` (stereo not drawn) [Compound 124], for which the results for the concentration for half-maximal inhibition (IC50) in the assay on HCT116 (Table 4) and in the assay with L1210 (Table 4) were 5.6 nM and 5 nM, respectively. Also, in the assay with HCT116 (setting [1]), the “potency relative to vinblastine (more potent)” value is recorded as “about 2 fold”.

In the case of `CCC1(NC(=O)c2ccc3ccncc3c2)CC2CN(CCc3c([nH]c4ccccc34)C(C(=O)OC)(c3cc4c(cc3OC)N(C)C3C(O)(C(=O)OC)C(OC(C)=O)C5(CC)C=CCN6CCC43C65)C2)C1` (stereo not drawn) [Compound 153], the IC50 with HCT116 (Table 6) and with L1210 (Table 6) was 0.4 nM throughout.

As for `CC[C@]1(NC(=O)c2cccc(Cl)c2)C[C@H]2CN(CCc3c([nH]c4ccccc34)[C@@](C(=O)OC)(c3cc4c(cc3OC)N(C)[C@H]3[C@@](O)(C(=O)OC)[C@H](OC(C)=O)[C@]5(CC)C=CCN6CC[C@]43[C@@H]65)C2)C1` [Compound 48], the 50% inhibitory concentration (IC50) in the assay with HCT116 (Table 2) is 2.7 nM; in the assay on L1210 (Table 2), 4.2 nM.

On to `CCSc1ccc(C(=O)NC2(CC)CC3CN(CCc4c([nH]c5ccccc45)C(C(=O)OC)(c4cc5c(cc4OC)N(C)C4C(O)(C(=O)OC)C(OC(C)=O)C6(CC)C=CCN7CCC54C76)C3)C2)cc1` (stereo not drawn) [Compound 86], for which the results for the IC50 with HCT116 (Table 2) and with L1210 (Table 2) were 6.1 nM and 4.9 nM, respectively.

Turning to `CCc1cc(CC)cc(C(=O)N[C@@]2(CC)C[C@H]3CN(CCc4c([nH]c5ccccc45)[C@@](C(=O)OC)(c4cc5c(cc4OC)N(C)[C@H]4[C@@](O)(C(=O)OC)[C@H](OC(C)=O)[C@]6(CC)C=CCN7CC[C@]54[C@@H]76)C3)C2)c1` [Compound 31], the half-inhibitory concentration (IC50) amounted to 6.4 nM with HCT116 (Table 2) and 4.2 nM with L1210 (Table 2).

Turning to `CCC1(NC(=O)c2ccc3ocnc3c2)CC2CN(CCc3c([nH]c4ccccc34)C(C(=O)OC)(c3cc4c(cc3OC)N(C)C3C(O)(C(=O)OC)C(OC(C)=O)C5(CC)C=CCN6CCC43C65)C2)C1` (stereo not drawn) [Compound 168], the IC50 amounted to 5.1 nM in the assay with HCT116 (Table 6) and 5.4 nM with L1210 (Table 6).

Regarding `CCC1(NC(=O)c2cc(C)c(OC)c(C)c2)CC2CN(CCc3c([nH]c4ccccc34)C(C(=O)OC)(c3cc4c(cc3OC)N(C)C3C(O)(C(=O)OC)C(OC(C)=O)C5(CC)C=CCN6CCC43C65)C2)C1` (stereo not drawn) [Compound 99], the values for the half-maximal inhibitory concentration (IC50) in the assay with HCT116 (Table 2) and in the assay with L1210 (Table 2) were 0.65 nM and 0.5 nM, respectively. Besides, the “potency relative to vinblastine (more potent)” value in the assay with HCT116 (setting [1]) stood at 10 fold.

Turning to `CCC1(NS(=O)(=O)c2c(C)cc(C)cc2C)CC2CN(CCc3c([nH]c4ccccc34)C(C(=O)OC)(c3cc4c(cc3OC)N(C)C3C(O)(C(=O)OC)C(OC(C)=O)C5(CC)C=CCN6CCC43C65)C2)C1` (stereo not drawn) [Compound 184], the 50% inhibitory concentration (IC50) amounted to 580 nM with HCT116 (Table 7, C20′ sulfonamides) and 500 nM in the assay with L1210 (Table 7, C20′ sulfonamides).

As for `CC[C@]1(NC(=O)c2cccc(C)c2)C[C@H]2CN(CCc3c([nH]c4ccccc34)[C@@](C(=O)OC)(c3cc4c(cc3OC)N(C)[C@H]3[C@@](O)(C(=O)OC)[C@H](OC(C)=O)[C@]5(CC)C=CCN6CC[C@]43[C@@H]65)C2)C1` [Compound 26], the half-maximal inhibitory concentration (IC50) worked out at 0.7 nM with HCT116 (Table 2) and 0.5 nM in the assay with L1210 (Table 2). In addition, the “potency relative to vinblastine (more potent)” value in the assay with HCT116 (setting [1]) is 10 fold.

As to `CCC1(NC(=O)c2ccncc2)CC2CN(CCc3c([nH]c4ccccc34)C(C(=O)OC)(c3cc4c(cc3OC)N(C)C3C(O)(C(=O)OC)C(OC(C)=O)C5(CC)C=CCN6CCC43C65)C2)C1` (stereo not drawn) [Compound 128], the IC50 with HCT116 (Table 5) and in the assay on L1210 (Table 5) was 0.4 nM throughout.

`CCC1(NC(=O)c2ccc(CN)cc2)CC2CN(CCc3c([nH]c4ccccc34)C(C(=O)OC)(c3cc4c(cc3OC)N(C)C3C(O)(C(=O)OC)C(OC(C)=O)C5(CC)C=CCN6CCC43C65)C2)C1` (stereo not drawn) [Compound 65]: the IC50 in the assay with HCT116 (Table 2) turned out to be 3.5 nM; with L1210 (Table 2), 25 nM.

With `CCC1(NC(=O)c2ccc(NC(=O)OC)cc2)CC2CN(CCc3c([nH]c4ccccc34)C(C(=O)OC)(c3cc4c(cc3OC)N(C)C3C(O)(C(=O)OC)C(OC(C)=O)C5(CC)C=CCN6CCC43C65)C2)C1` (stereo not drawn) [Compound 59], the 50% inhibitory concentration (IC50) was 0.8 nM with HCT116 (Table 2) and 1.5 nM with L1210 (Table 2).

On to `CCC1(NC(=O)c2ccc3cc(NC(=O)OC(C)(C)C)ccc3c2)CC2CN(CCc3c([nH]c4ccccc34)C(C(=O)OC)(c3cc4c(cc3OC)N(C)C3C(O)(C(=O)OC)C(OC(C)=O)C5(CC)C=CCN6CCC43C65)C2)C1` (stereo not drawn) [Compound 118], for which the figures for the IC50 in the assay on HCT116 (Table 4) and in the assay on L1210 (Table 4) were 6.5 nM and 5 nM, respectively.

Take `CCC1(NC(=O)c2cccc(C(C)C)c2)CC2CN(CCc3c([nH]c4ccccc34)C(C(=O)OC)(c3cc4c(cc3OC)N(C)C3C(O)(C(=O)OC)C(OC(C)=O)C5(CC)C=CCN6CCC43C65)C2)C1` (stereo not drawn) [Compound 33]: the IC50 came out at 8.7 nM with HCT116 (Table 2) and 7.5 nM with L1210 (Table 2).

`CCC1(NC(=O)C=Cc2ccncc2)CC2CN(CCc3c([nH]c4ccccc34)C(C(=O)OC)(c3cc4c(cc3OC)N(C)C3C(O)(C(=O)OC)C(OC(C)=O)C5(CC)C=CCN6CCC43C65)C2)C1` (stereo not drawn) [Compound 109]: the IC50 with HCT116 (Table 3) worked out at 0.7 nM; with L1210 (Table 3) it was 0.6 nM.

Regarding `CCC1(NC(=O)c2cnc3ccccc3n2)CC2CN(CCc3c([nH]c4ccccc34)C(C(=O)OC)(c3cc4c(cc3OC)N(C)C3C(O)(C(=O)OC)C(OC(C)=O)C5(CC)C=CCN6CCC43C65)C2)C1` (stereo not drawn) [Compound 156], the figures for the half-maximal inhibitory concentration (IC50) in the assay with HCT116 (Table 6) and with L1210 (Table 6) were 5.9 nM and 6.2 nM, respectively.

With `CCC(C)c1ccc(C(=O)N[C@@]2(CC)C[C@H]3CN(CCc4c([nH]c5ccccc45)[C@@](C(=O)OC)(c4cc5c(cc4OC)N(C)[C@H]4[C@@](O)(C(=O)OC)[C@H](OC(C)=O)[C@]6(CC)C=CCN7CC[C@]54[C@@H]76)C3)C2)cc1` (stereo partly drawn) [Compound 37], the results for the IC50 in the assay on HCT116 (Table 2) and with L1210 (Table 2) were 15 nM and 25 nM, respectively.

Turning to `CC[C@]1(NC(=O)/C=C/c2ccco2)C[C@H]2CN(CCc3c([nH]c4ccccc34)[C@@](C(=O)OC)(c3cc4c(cc3OC)N(C)[C@H]3[C@@](O)(C(=O)OC)[C@H](OC(C)=O)[C@]5(CC)C=CCN6CC[C@]43[C@@H]65)C2)C1` [Compound 113], the IC50 in the assay on HCT116 (Table 3) and with L1210 (Table 3) was 1.3 nM in each case.

Turning to `CC[C@]1(NC(=O)c2cc(C)c(OCc3ccccc3)c(C)c2)C[C@H]2CN(CCc3c([nH]c4ccccc34)[C@@](C(=O)OC)(c3cc4c(cc3OC)N(C)[C@H]3[C@@](O)(C(=O)OC)[C@H](OC(C)=O)[C@]5(CC)C=CCN6CC[C@]43[C@@H]65)C2)C1` [Compound 100], the half-inhibitory concentration (IC50) in the assay on HCT116 (Table 2) and in the assay with L1210 (Table 2) was 30 nM in each case.

For the compound `CCC1(NC(=O)c2ccc(OC)cc2)CC2CN(CCc3c([nH]c4ccccc34)C(C(=O)OC)(c3cc4c(cc3OC)N(C)C3C(O)(C(=O)OC)C(OC(C)=O)C5(CC)C=CCN6CCC43C65)C2)C1` (stereo not drawn) [Compound 67], the concentration for half-maximal inhibition (IC50) in the assay on HCT116 (Table 2) stood at 0.3 nM; in the assay with L1210 (Table 2), 0.25 nM.

With `CC[C@]1(NC(=O)C(C)C)C[C@H]2CN(CCc3c([nH]c4ccccc34)[C@@](C(=O)OC)(c3cc4c(cc3OC)N(C)[C@H]3[C@@](O)(C(=O)OC)[C@H](OC(C)=O)[C@]5(CC)C=CCN6CC[C@]43[C@@H]65)C2)C1` [Compound 13], the concentration for half-maximal inhibition (IC50) was 90 nM in the assay on HCT116 (Table 1) and 70 nM in the assay with L1210 (Table 1).

For `CC[C@]1(NC(=O)c2cccc(Br)c2)C[C@H]2CN(CCc3c([nH]c4ccccc34)[C@@](C(=O)OC)(c3cc4c(cc3OC)N(C)[C@H]3[C@@](O)(C(=O)OC)[C@H](OC(C)=O)[C@]5(CC)C=CCN6CC[C@]43[C@@H]65)C2)C1` [Compound 52], the results for the IC50 in the assay with HCT116 (Table 2) and in the assay on L1210 (Table 2) were 6.3 nM and 5 nM, respectively.

For the compound `CC[C@]1(NC(=O)c2ccccc2OC(F)(F)F)C[C@H]2CN(CCc3c([nH]c4ccccc34)[C@@](C(=O)OC)(c3cc4c(cc3OC)N(C)[C@H]3[C@@](O)(C(=O)OC)[C@H](OC(C)=O)[C@]5(CC)C=CCN6CC[C@]43[C@@H]65)C2)C1` [Compound 80], the IC50 came out at 480 nM in the assay on HCT116 (Table 2) and 450 nM in the assay on L1210 (Table 2).

For the compound `CC[C@]1(NC(=O)c2cc(C)cc(C)c2)C[C@H]2CN(CCc3c([nH]c4ccccc34)[C@@](C(=O)OC)(c3cc4c(cc3OC)N(C)[C@H]3[C@@](O)(C(=O)OC)[C@H](OC(C)=O)[C@]5(CC)C=CCN6CC[C@]43[C@@H]65)C2)C1` [Compound 29], the figures for the half-maximal inhibitory concentration (IC50) in the assay on HCT116 (Table 2) and in the assay on L1210 (Table 2) were 6 nM and 5.4 nM, respectively.

For `CCC1(NC(=O)c2ccc3sccc3c2)CC2CN(CCc3c([nH]c4ccccc34)C(C(=O)OC)(c3cc4c(cc3OC)N(C)C3C(O)(C(=O)OC)C(OC(C)=O)C5(CC)C=CCN6CCC43C65)C2)C1` (stereo not drawn) [Compound 163], the figures for the half-maximal inhibitory concentration (IC50) with HCT116 (Table 6) and with L1210 (Table 6) were 4.9 nM and 4.2 nM, respectively.

(Values after patent US10689381B2 (priority 2017, dated 2020).)
